The assay concerns the target Dipeptidyl peptidase 4 (Homo sapiens, UniProt P27487). In words: Inhibition of human recombinant DPP4 using H-Gly-Pro-AMC as substrate incubated for 30 mins by fluorescence based microplate reader assay.

Structures are written as SMILES.

Experimental findings from ChEMBL document CHEMBL5108062 (J Med Chem, 2022) are described below.

Sequence of Dipeptidyl peptidase 4 (P27487 whole entry): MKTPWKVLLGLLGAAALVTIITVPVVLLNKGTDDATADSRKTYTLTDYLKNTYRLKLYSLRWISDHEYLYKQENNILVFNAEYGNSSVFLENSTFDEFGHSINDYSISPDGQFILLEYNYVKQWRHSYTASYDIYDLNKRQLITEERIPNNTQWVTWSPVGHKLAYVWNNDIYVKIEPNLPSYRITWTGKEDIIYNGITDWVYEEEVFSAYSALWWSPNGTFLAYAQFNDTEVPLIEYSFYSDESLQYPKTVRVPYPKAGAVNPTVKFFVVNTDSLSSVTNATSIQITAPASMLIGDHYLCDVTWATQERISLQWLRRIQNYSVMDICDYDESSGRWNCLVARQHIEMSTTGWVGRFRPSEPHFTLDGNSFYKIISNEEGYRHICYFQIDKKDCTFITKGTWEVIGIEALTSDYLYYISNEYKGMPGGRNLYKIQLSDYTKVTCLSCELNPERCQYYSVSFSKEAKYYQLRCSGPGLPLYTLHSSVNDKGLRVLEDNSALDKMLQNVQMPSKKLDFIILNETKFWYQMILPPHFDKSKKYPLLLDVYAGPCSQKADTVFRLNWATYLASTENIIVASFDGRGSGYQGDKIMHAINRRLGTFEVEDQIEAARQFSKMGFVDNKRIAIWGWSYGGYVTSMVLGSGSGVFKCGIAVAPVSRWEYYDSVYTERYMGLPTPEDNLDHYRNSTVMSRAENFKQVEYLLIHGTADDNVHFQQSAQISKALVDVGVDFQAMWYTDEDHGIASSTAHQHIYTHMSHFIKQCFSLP

Consider `COc1cc(S(N)(=O)=O)ccc1OCCC(N=[N+]=[N-])C1COc2ccccc2O1` (stereo unspecified), for which the IC50 was found to be 327 µM.
